In paper PMC6608564 (Journal of the Endocrine Society, 2019):

Experiments:
Acute food intake study = assay type: in vivo, male C57BL/6 mice; conditions: conivaptan 0.5 mg/kg IP coadministered with OXT 2 mg/kg IP, Fig. 3F
[1] = Chronic OXT analog treatment in DIO mice; assay type: in vivo, C57BL/6 DIO mice; conditions: vs vehicle
[2] = Rat blood pressure telemetry; assay type: in vivo, DIO male Long-Evans rats; conditions: IP 0.3, 1, 3 mg/kg, DIO Long-Evans rats
[3] = Food intake study with free-hand ICV injection; assay type: in vivo, male C57BL/6 mice; conditions: 3 μg per mouse ICV
[4] = Pharmacokinetic measurement by mass spectrometry in mice; assay type: in vivo, C57BL/6 mice
human OXTR = target: T1, human OXTR (Homo sapiens, UniProt P30559); assay: FLIPR calcium assay, AV12 cells stably expressing human OXTR; assay type: cell-based; conditions: Fig. 1 and Dryad data [67]; for receptor selectivity against vasopressin receptors (in words): OXTR vs V1a, V1b (FLIPR) and V2 (cAMP); for OXTR activity / potency (in words): in vitro OXTR assay
T1 sequence (P30559 1-389): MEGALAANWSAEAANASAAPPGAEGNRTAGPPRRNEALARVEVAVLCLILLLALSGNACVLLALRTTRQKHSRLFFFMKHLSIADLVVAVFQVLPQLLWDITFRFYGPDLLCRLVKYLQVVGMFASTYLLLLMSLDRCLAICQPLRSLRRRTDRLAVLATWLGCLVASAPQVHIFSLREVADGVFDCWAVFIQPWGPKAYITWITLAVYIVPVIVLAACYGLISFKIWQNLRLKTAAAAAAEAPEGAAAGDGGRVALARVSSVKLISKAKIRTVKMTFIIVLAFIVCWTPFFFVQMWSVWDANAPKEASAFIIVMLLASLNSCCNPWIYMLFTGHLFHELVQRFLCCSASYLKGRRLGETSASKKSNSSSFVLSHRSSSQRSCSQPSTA

[5] = C57BL/6, mouse, plasma, ip, 1 mg/kg

Molecule: Cc1nc2c([nH]1)-c1ccccc1N(C(=O)c1ccc(NC(=O)c3ccccc3-c3ccccc3)cc1)CC2 [conivaptan]
- effect on OXT-induced food intake suppression (Acute food intake study): abolished OXT’s effect on food intake suppression

Molecule: CC[C@H](C)[C@@H]1NC(=O)[C@H](Cc2ccc(O)cc2)NC(=O)[C@@H](N)CSSC[C@@H](C(=O)N2CCC[C@H]2C(=O)N[C@@H](CC(C)C)C(=O)NCC(N)=O)NC(=O)[C@H](CC(N)=O)NC(=O)[C@H](CCC(N)=O)NC1=O [OXT, oxytocin]
- serum potassium level [1]: significantly lower
- mean arterial pressure (MAP) [2]: dose-dependently caused a statistically significant increase of MAP
- behavior during first hour after ICV injection (vocalization, grooming) [3]: clinical signs of behavioral distress
- time until plasma level dropped below detection ([4]; 1 mg/kg IP, single dose, Fig. 2A): < 3 h
- Tmax [4, 5]: ~30 min
- half-life [4, 5]: < 30 min

Molecule: TC OT39
- receptor selectivity against vasopressin receptors (in words) (human OXTR): high degree of OXTR selectivity
- OXTR activity / potency (in words) (human OXTR): significantly decreased potency (EC50) and efficacy (Emax)

Molecule: carbetocin [OXT^Butyryl]
- receptor selectivity against vasopressin receptors (in words) (human OXTR): increased receptor selectivity against vasopressin receptors
- OXTR activity / potency (in words) (human OXTR): without affecting OXTR activation
